# Measurements published in patent US20260315372A1, “INJECTABLE PHARMACEUTICAL FORMULATIONS” (priority 2023, published 2026).
# Like-named read-outs stand apart in the source and are kept apart here.
# How the values were obtained:
# [1] = dog, in vivo, sc
# 5-HT2A receptor = conditions: cited from earlier work
# [2] = test system: 5-hydroxytryptamine-(5-HT)1A; conditions: cited from earlier work
# 5-HT2A = conditions: cited from earlier work
# 5-HT2C = conditions: cited from earlier work
# [3] = test system: serotonin transporter (SERT); conditions: cited from earlier work
# [4] = test system: trace amine-associated receptors (TAARs); conditions: cited from earlier work
# sigma-1 receptor = conditions: cited from earlier work
# [5] = in vivo; cited from earlier work
# in vivo [6] = conditions: dog, sc, 0.5 mg/kg; for Vd/F: Vz/F (mean)
# [7] = cited from earlier work
# in vivo [8] = test: in vivo; parameters: species or system male Beagle dogs; conditions: dog
# From the text: A: Proof of Concept—Pharmacokinetics (PK) of DMT-d10 in Male Beagle Dogs Following Subcutaneous Administration in Saline or Sodium Hyaluronate
# The objective of this study was to determine if a 1% (w/v) sodium hyaluronate formulation could modify the SC release of DMT-d10 compared to 0.9% (w/v) saline formulation.
# Animals. Three, non-naïve, male Beagle dogs aged ca 2-5 years and weighing 10-15 kg at dosing were supplied by Charles River for use on this study and were bred for use in scientific procedures. The animal work in this study was conducted under the UK Home Office Project License No. PPL PP9376768, Pharmacokinetics of Pharmaceuticals. This was a cross-over design study to reduce the number of dogs in use and as well as decrease interindividual variability.
# Housing. Animals were uniquely identified by microchip and tattoo in this study. During pre-trial and on-study periods, the animals were group housed in caging appropriate to the species. The animals were housed singly for up to 4 h per day and during this time had access to their daily ration of diet.
# IPS 5007 diet was provided as a daily ration throughout the study. A 350 g ration of feed per dog was provided once daily, except during designated procedures. On the morning of dosing (pre-dose), the animals were deprived from their daily food allowance until 2 h post dose. Mains quality tap water was available ad libitum. Details of diet and water are maintained at the test facility.
# (§1) Prior to acceptance for use on study, animals were subject to an examination and the results found to be satisfactory. All animals were weighed prior to each dose administration and the bodyweights recorded. Animals were checked regularly throughout the duration of the study. Any clinical signs were closely monitored and recorded.
# Test Items. DMT-d10 fumarate was formulated as a solution in 0.9% (w/v) saline, pH 5.5-6 (control) or in 1% (w/v, nominal) sodium hyaluronate in water for injection (WFI) (Formulation 28) at a free base concentration of 0.4 mg/mL (nominal) for SC injection. Each test item was prepared on the morning of dose administration and stored at ambient temperature, protected from light, until dosing.
# Control (0.9% w/v saline): On the day prior to dosing, DMT-d10 fumarate was removed from storage (frozen, in a freezer set to maintain ≤−20° C., protected from light) and allowed to equilibrate to room temperature. Using a precision analytical balance, 9.7 mg of DMT-d10 fumarate was weighed into a 20 mL headspace vial which was pre-calibrated to a final volume of 15 mL with a magnetic stir bar inside. The weighed API was returned to storage. On the morning of dosing, the weighed API was removed from storage and allowed to equilibrate to room temperature. 13.55 mL of vehicle (0.9% w/v saline) was added to the vial (equivalent to 90% of final volume) and set to magnetically stir for ca 35 minutes. Using a calibrated pH meter, the solution pH was measured. […] The solution was made to final volume of 15 mL, using the pre-calibrated line, with 0.9% w/v saline. The final pH was recorded as 5.53. The solution was then filtered using a […] PVDF syringe filter in the laminar air flow cabinet (LAFC). The visual appearance of the solution was recorded as a clear, colorless, homogenous solution. […] The control solution was protected from light at all times.
# Formulation 28: On the morning of dosing, DMT-d10 fumarate was removed from storage (frozen, in a freezer set to maintain ≤−20° C., protected from light) and allowed to equilibrate to room temperature. Using a precision analytical balance, 11.02 mg of DMT-d10 fumarate was weighed into a 20 mL headspace vial containing a magnetic stir bar. 3.5 mL of WFI was added to the vial and set to stir, making a stock solution with a free base concentration of 2 mg/mL (nominal) DMT-d10. Once homogenous, 2 mL of the stock solution was dispensed into a vial containing 8 mL of 1.25% (w/v, nominal) sodium hyaluronate and vortex mixed until homogenous. […]
# [9] = parameters: species or system male Beagle dogs; conditions: dog, in vivo, sc, 1 mg/kg
# Experimental: D: Dose Concentration and Dose Volume—Pharmacokinetics of DMT-d10 in Male Beagle Dogs Following Subcutaneous Administration at 1 mg/kg Formulated in Hyaluronic Acid Concentrations at Higher Dosing Solution Concentrations and Lower Dosing Volume
# The objective of this study was to determine the effect of increasing the dosing solution concentration of DMT-d10 and decreasing the dose volume on the SC release of DMT-d10 into the systemic circulation. This study was conducted using the same CRO, housing, and materials as described above in part A. All conditions described in part A pertain to this study with the exceptions noted below.
# Test Items. […]
# […]. Once homogeneous, the density was measured to be 1.000 g/cm^3. […] The visual appearance was recorded as a clear/yellowish homogenous solution at this stage. The pH was measured using a calibrated pH meter and recorded to be 3.24. […] The density was measured to be 1.012 g/cm^3. […]
# […]. The density of the resultant 0.8% (w/v, nominal) sodium hyaluronate solution was recorded to be 1.002 g/cm^3. […] The final visual appearance of the formulation was recorded as a clear, colorless, homogenous solution.
# (§2) Subcutaneous injections. […] Appropriate volumes of dose were calculated per each animal based on real animal bodyweights and a target dose volume of 0.05 mL/kg or 0.25 mL/kg. […]
# [10] = parameters: species or system male Beagle dogs; conditions: dog, in vivo, sc
# Experimental: as §1
# Subcutaneous injections. The target dose was 0.1 mg/kg, free base at a dose concentration of 0.4 mg/mL. Appropriate volumes of dose were calculated per each animal based on real animal bodyweights and a target dose volume of 0.25 mL/kg. The volumes were pulled into plastic Troge 2.5 mL syringes. Animals were identified by microchip and tattoo. […]
# Subcutaneous injections. […] Appropriate volumes of dose were calculated per each animal based on real animal bodyweights and a target dose volume of 0.25 mL/kg. […]
# as §2
# Subcutaneous injections. DMT+DMT-d10 were co-dosed (via Formulation 35) at 0.5 mg/kg/analyte, total dose of 1.0 mg/kg (free base), each at a dose concentration of 10 mg/mL (nominal), total dose concentration of 20 mg/mL (nominal) and a dose volume of 0.05 mL/kg calculated per each animal based on real animal bodyweights. […]
structure (smiles),measurement,setting,value
"CN(C)CCc1c[nH]c2ccccc12 [DMT, 2-(1H-indol-3-yl)-N,N-dimethylethan-1-amine]",plasma concentrations quantifiable to,[1],≤ 2 h
same,agonism at the 5-HT2A receptor,5-HT2A receptor,potent agonist
same,binding to 5-HT1A,[2],binds with affinity
same,binding to 5-HT2A,5-HT2A,binds with affinity
same,binding to 5-HT2C,5-HT2C,binds with affinity
same,binding to SERT,[3],binds with affinity
same,binding to TAARs,[4],binds to other receptors
same,binding to sigma-1 receptor,sigma-1 receptor,binds to other receptors
same,therapeutically relevant psychedelic dose,[5],≥ 70 mg
same,AUC(0-inf),in vivo [6],48.7 ng·h/mL
same,CL/F,in vivo [6],173 mL/min/kg
same,Cmax,in vivo [6],58.1 ng/mL
same,MRT inf,in vivo [6],52 min
same,Tmax,in vivo [6],30 min
same,half-life,in vivo [6],32 min
same,Vd/F,in vivo [6],7.59 L/kg
same,oral activity,"[7]; in vivo, po",not orally active
"COc1ccc2[nH]cc(CCN(C)C)c2c1 [Formulation 5-MeO-DMT, 5-methoxy-N,N-dimethyltryptamine]",oral bioavailability,[7]; oral,lacks oral bioavailability
"[2H]C([2H])([2H])N(C([2H])([2H])[2H])C([2H])([2H])C([2H])([2H])c1c[nH]c2ccccc12 [DMT-d10, 2-(1H-indol-3-yl)-N,N-bis(methyl-d3)ethan-1-amine-1,1,2,2-d4]",dose proportionality of Cmax and AUCinf,in vivo [8],increased in a dose proportional manner
same,plasma DMT-d10 concentrations quantifiable up to,in vivo [8],up to 4 hours
same,MRT inf,in vivo [8]; sc,~90 min
same,Tmax,in vivo [8]; sc,30 to 45 min
same,half-life,in vivo [8]; sc,~54 min
same,plasma DMT-d10 concentrations quantifiable up to,in vivo [8]; sc,up to 4 hours
same,plasma DMT-d10 concentrations quantifiable up to,[9],up to 4 hours
same,adverse reactions to the administration,[10],No adverse reactions
same,clinical signs post-dose,[10],"Mild, transient clinical signs"
same,decrease of apparent clearance (Cl/F) by deuteration,[1],2.2 ×
same,decrease of apparent volume of distribution (Vz/F) by deuteration,[1],1.6 ×
same,increase of AUCinf by deuteration,[1],2.2 ×
same,increase of Cmax by deuteration,[1],1.3 ×
same,increase of MRTinf by deuteration,[1],1.4 ×
same,increase of t1/2 by deuteration,[1],1.4 ×
same,plasma concentrations quantifiable to,[1],≤ 4 h
same,Vz/F (mean),[1]; 0.5 mg/kg,4.72 L/kg
same,AUC(0-inf),in vivo [6],109 ng·h/mL
same,CL/F,in vivo [6],77.5 mL/min/kg
same,Cmax,in vivo [6],75.6 ng/mL
same,MRT inf,in vivo [6],73.8 min
same,Tmax,in vivo [6],30 min
same,half-life,in vivo [6],43.3 min
same,Vd/F,in vivo [6],4.73 L/kg
